Data set [1] relates to CgCDR1 transcription (CgPdr1 target). Put plainly: Transcription assay, quantitative real-time PCR of CgPdr1 target genes. It is filed as cell-based, Candida glabrata. (In qPCR the cycle at which signal appears reflects the starting amount.)
Another data set deals with T1, CgGal11A KIX domain (Candida glabrata, UniProt Q6FRS9).
T1 construct: other: compared with iKIX1; other: GST-CgGal11A KIX 3 μM, 30 nM FITC-CgPdr1 AD30; Kd of CgPdr1 AD30 for CgGal11A KIX domain; other: FP titration, 30 nM FITC-CgPdr1 AD30; Kd of the CgPdr1 AD for the CgGal11A KIX domain; apparent Ki; fused on or other part: N-terminal His6-GST tag
Put plainly: Fluorescence polarization (FP) binding/competition assay, CgPdr1 AD30 with CgGal11A KIX. To be noted: calculated from measured Kd and IC50; read-out: apparent Ki. The protocol: A fluorescein-tagged 30 amino acid C-terminal activation domain of CgPdr1 (FITC-[…] (SEQ ID NO: 1)) CgPdr1 AD30 was purchased as a synthetic peptide from Pepide2.0. The CgGal11A KIX domain was expressed as a His6-GST fusion protein and purified by affinity chromatography with Ni-NTA resin (Qiagen) and size exclusion chromatography (Sephadex 75, Pharmacia). […] For small molecule screening, fluorescein-CgPdr1 AD30 was held at a concentration of 30 nM and the GST-tagged CgGal11A KIX was at a concentration of 1 μM (above the Kd). The screen was carried out in duplicate and the volume in each well was 25 μL.
To measure the dissociation constant (Kd) of CgPdr1 AD30, FITC labeled CgPdr1 AD30 was held at a concentration of 30 nM and the GST-tagged CgGal11A KIX was prepared with concentrations ranging from 0 to 300 μM. The IC50 for iKIX-1 binding was measured with GST-tagged CgGal11A KIX held at a constant 3 μM concentration, iKIX-1 was titrated from 0 to 1000 μM and 30 nM FITC-labeled CgPdr1 AD30 was added subsequently with an HP D300 digital dispenser (Tecan Group. Maennerdorf, Switzerland). All experiments were carried out in duplicate and the s.d. is reported at each point on the plot.
The FP titration curve of the CgPdr1 AD30 was fitted to GraphPad Prisms (La Jolla, Calif., USA) One site-total binding equation (equation 1). […]

The next data set relates to Candida albicans DSY2621. Description: Broth dilution MIC. Background: Broth dilution looks for growth in wells or tubes with falling amounts of substance.
Another data set deals with Candida krusei DSY471. Description: Broth dilution MIC. The following applies: Pichia kudriavzevii, ATCC6258.
Data set [2] in a line: In vitro stability (plasma, microsomes) and in vivo mouse pharmacokinetics. The protocol: Microsome stability assays were performed as previously described (see, e.g., Choi J Y, Calvet C M, Gunatilleke S S, Ruiz C, Cameron M D, McKerrow J H, et al. Rational development of 4-aminopyridyl-based inhibitors targeting Trypanosoma cruzi CYP51 as anti-chagas agents. J Med Chem. 56(19):7651-68. PMCID: 3864028); for plasma stability, 100% freshly drawn plasma in LiHeparin was used with similar sampling and sample preparation with no addition of microsomes, buffer or NADPH.
Male Swiss albino mice were dosed via tail vein (IV; intravenous, solution in 5% NMP and 10% solutol in saline, dose: 2 mg/kg) or via oral gavage (PO; suspensions in 0.5% w/v Na CMC with 0.1% v/v Tween-80 in water). Blood and brain samples were collected at 0, 0.083 (for IV only), 0.25, 0.5, 1, 2, 4, 6 (for PO only), 8, 12, and 24 hours for the IV and PO groups. The blood samples were collected from sets of three mice at each time point. Plasma samples were separated by centrifugation and stored below −70° C. until analysis. Brain samples were homogenized using ice-cold phosphate buffer saline (pH 7.4) and homogenates were stored below −70° C. until analysis. All samples were processed and analyzed by […] (LLOQ, 2.03 ng/mL for plasma and 10.16 ng/mL for brain). Pharmacokinetic parameters were calculated using the noncompartmental analysis tool of Phoenix WinNonlin (version 5.3).

Data set [3] relates to Gal11/Med15 recruitment to Pdr1-regulated target genes. Description: Chromatin immunoprecipitation (ChIP) assay. It is filed as cell-based, Saccharomyces cerevisiae. The protocol: ChIP was performed according to standard procedures (see. e.g., McConnell A D, Gelbart M E, Tsukiyama T. Histone fold protein Dls1p is required for Isw2-dependent chromatin remodeling in vivo. Mol Cell Biol. 2004; 24(7):2605-13. PMCID: 371119). Briefly, cells were grown to saturation then washed 2 times with sterilized Milli-Q (Millipore) water, resuspended to an OD600 of 0.8 in YP (1% yeast extract, 2% bacto peptone) and then grown for 6 hours at 30° C. with shaking in the presence of DMSO (vehicle) or iKIX1. Cultures were induced with ketoconazole to a final concentration of 40 μM and harvested at the times indicated. 2 mL of culture was harvested at 0′ and 15′ for matched transcription samples; RNA was prepared as described below. Cells were fixed with 1% formaldehyde (final) for 15 minutes with swirling and then quenched with 125 mM glycine (final) for 5 min. with swirling. Cells were pelleted, washed with TBS+125 mM glycine and then TBS. Cells were lysed in buffer containing 50 mM HEPES, pH 7.5, 140 mM NaCl, 1% Triton X-100, 0.1% sodium deoxycholate, 1 mM EDTA and protease inhibitors and 0.5 mm glass beads. Glass beads were removed by centrifugation before cell lysate was sonicated to obtain 150 to 400 base pair fragments. […]

Another data set has as its system Candida glabrata DSY562. Put plainly: Broth dilution MIC. To be noted: Nakaseomyces glabratus.
In data set [4] the test system is Saccharomyces cerevisiae DSY2094. Put plainly: Broth dilution MIC.
Description: (§1) Antifungal susceptibility testing was carried out using broth dilution assays which examined effects of two-fold dilutions of compounds on cellular growth. The minimum inhibitory concentration (MIC) was defined as the drug concentration at which the optical density was equal to or decreased more than 50% from that of the drug-free culture.

In brackets after ≈: the same amount, converted by molar mass.

Broadly, the MIC is the least concentration at which growth counts as inhibited. Higher therefore signals weaker potency.

T1 sequence (Q6FRS9 whole entry, looked up, the tested form may be a part): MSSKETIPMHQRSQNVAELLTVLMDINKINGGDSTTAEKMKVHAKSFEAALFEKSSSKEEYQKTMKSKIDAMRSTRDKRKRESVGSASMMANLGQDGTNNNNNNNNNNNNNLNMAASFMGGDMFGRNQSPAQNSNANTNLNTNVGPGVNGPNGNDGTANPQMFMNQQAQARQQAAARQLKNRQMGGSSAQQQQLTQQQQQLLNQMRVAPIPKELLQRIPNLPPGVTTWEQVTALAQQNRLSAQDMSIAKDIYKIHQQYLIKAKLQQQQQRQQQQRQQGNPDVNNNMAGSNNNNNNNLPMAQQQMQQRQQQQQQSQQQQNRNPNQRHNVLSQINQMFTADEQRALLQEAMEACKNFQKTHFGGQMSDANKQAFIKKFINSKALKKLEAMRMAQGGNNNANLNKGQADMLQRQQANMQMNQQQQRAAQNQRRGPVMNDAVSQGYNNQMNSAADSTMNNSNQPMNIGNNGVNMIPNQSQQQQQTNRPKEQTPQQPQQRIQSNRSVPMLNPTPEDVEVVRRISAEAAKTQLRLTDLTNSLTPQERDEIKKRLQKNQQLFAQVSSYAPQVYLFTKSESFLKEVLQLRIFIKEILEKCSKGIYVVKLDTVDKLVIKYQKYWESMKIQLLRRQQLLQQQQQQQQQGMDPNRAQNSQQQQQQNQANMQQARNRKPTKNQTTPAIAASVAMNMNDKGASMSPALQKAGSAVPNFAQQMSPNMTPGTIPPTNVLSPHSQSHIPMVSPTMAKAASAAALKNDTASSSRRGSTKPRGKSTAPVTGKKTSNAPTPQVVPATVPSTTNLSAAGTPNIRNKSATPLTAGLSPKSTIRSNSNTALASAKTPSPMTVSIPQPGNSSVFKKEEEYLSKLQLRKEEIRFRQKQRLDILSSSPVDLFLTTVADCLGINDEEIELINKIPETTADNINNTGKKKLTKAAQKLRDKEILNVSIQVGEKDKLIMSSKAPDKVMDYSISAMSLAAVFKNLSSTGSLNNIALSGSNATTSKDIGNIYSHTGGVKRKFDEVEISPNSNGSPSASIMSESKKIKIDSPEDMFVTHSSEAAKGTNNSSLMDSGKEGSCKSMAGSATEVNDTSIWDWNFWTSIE
Description for Candida albicans DSY2621: as §1
Description for Candida glabrata DSY562: as §1
Description for Candida krusei DSY471: as §1

Turning to `N#CCC(=O)NNC(=S)Nc1ccc(Cl)c(Cl)c1` [iKIX1, 2-(2-Cyanoacetyl)-N-(3,4-dichlorophenyl)hydrazinecarbothioamide], in data set [1] (CgPDR1 wild-type strain (SFY114), pre-treatment then 40 μM ketoconazole), the “ketoconazole-induced CgPdr1 target gene (CgCDR1) transcription (in words)” value is “reduced target gene induction in a durable and concentration-dependent manner”. For the same molecule, the Pdr1-target gene induction result in data set [1] (iKIX1 alone, no azole) is on record as “did not significantly affect Pdr1-target gene induction”. Besides, in data set [1] (isogenic strains with gain-of-function CgPDR1 mutations), the “azole-induced transcription of CgPdr1 target genes” value is on record as “reduced azole-induced transcription of CgPdr1 target genes (e.g., CgCDR1) in a concentration-dependent manner in all strains tested”. For the same molecule, on CgGal11A KIX domain, the Ki was 18.1 µM. In addition, the MIC against Candida albicans DSY2621 worked out at 12.5 µM (≈ 3.79 µg/mL); in the data set with Candida krusei DSY471, 6.25 µM (≈ 1.89 µg/mL); against Candida glabrata DSY562 it was 12.5 µM (≈ 3.79 µg/mL); in data set [4], 12.5 µM (≈ 3.79 µg/mL). In addition, the “in vitro stability and in vivo mouse pharmacokinetics (in words)” value in data set [2] is “favorable drug-like properties and in vivo exposure”. The “constitutive occupancy of Pdr1 at Pdr1-regulated target genes” value in data set [3] (20 μM iKIX1) is reported as “did not impede the constitutive occupancy of Pdr1”. Besides, the “ketoconazole-induced recruitment of Gal11/Med15 to promoters of PDR5 and SNQ2” value in data set [3] (iKIX1 pre-treatment) was “ketoconazole-induced recruitment of Gal11/Med15 was abrogated”.

Source of the values: US11136291B2, “Antifungal compounds and uses thereof” (Dana-Farber Cancer Institute, Inc., priority 2016, dated 2021).
